Converted amounts (≈) assume the structure as drawn. Read-outs that look alike come from different tables or passages of the source.
Tests used:
physchem = conditions: 25 °C, water, thermodynamic from solid
Protocol: Glass vials containing water and excess amount of carvedilol salts were shaken by a mechanical shaker at ambient conditions. Aliquots were taken out at various time-point, filtered through 0.45 μm Acrodisc GHP filter. The pH of the filtered solutions was measured and suitable dilution was performed prior to UV-Vis analysis of carvedilol concentration.

[1] = cited from earlier work

Compound: COc1ccccc1OCCNCC(O)COc1cccc2[nH]c3ccccc3c12 (racemic) [Carvedilol Free Base]
- solubility at 1 h (physchem): 9.8 µg/mL (≈ 24.1 µM)
- solubility at 24 h (physchem): 11.6 µg/mL (≈ 28.5 µM)
- solubility ([1]; above pH 9.0): < 1 µg/mL
- saturation solubility ([1]; pH 5, room temperature): ~100 µg/mL
- saturation solubility ([1]; pH 7, room temperature): ~23 µg/mL
